Each molecule was assayed against GRK2 (Homo sapiens (Human), UniProt P25098) (assay: GRK2 kinetic assay (phosphorylation of bROS or tubulin, phosphorimaging)). Conditions: 50 nM GRK, 5 μM ATP, 5 min reaction.
Assay type: biochemical
Protocol: The low salt concentration and DDM were used to maximize GRK activity and disrupt small molecule aggregates from forming, respectively. […] Data was analyzed and inhibition curves were fit via GraphPad Prism.

Sequence of GRK2 (P25098 whole entry, species assumed): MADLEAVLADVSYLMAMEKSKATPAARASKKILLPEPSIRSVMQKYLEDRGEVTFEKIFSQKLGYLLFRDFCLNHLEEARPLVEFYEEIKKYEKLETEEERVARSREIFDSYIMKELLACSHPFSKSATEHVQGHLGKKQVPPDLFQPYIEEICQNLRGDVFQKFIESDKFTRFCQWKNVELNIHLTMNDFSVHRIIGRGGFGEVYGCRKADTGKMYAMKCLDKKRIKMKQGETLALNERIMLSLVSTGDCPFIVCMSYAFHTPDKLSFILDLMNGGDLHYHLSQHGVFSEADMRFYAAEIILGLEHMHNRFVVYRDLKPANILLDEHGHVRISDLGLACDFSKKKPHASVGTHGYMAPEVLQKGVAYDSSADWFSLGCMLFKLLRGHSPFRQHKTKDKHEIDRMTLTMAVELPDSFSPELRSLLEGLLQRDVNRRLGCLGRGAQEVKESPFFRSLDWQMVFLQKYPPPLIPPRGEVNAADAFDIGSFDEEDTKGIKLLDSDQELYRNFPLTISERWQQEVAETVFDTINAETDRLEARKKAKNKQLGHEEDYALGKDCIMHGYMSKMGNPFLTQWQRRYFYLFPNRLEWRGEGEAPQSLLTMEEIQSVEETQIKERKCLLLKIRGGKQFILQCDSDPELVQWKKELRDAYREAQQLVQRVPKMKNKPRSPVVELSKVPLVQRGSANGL

SMILES	IC50 [nM]
CC1=C(C(=O)Nc2ccc3[nH]ncc3c2)C(c2ccc(F)c(CCC(=O)NCCc3ccccc3)c2)NC(=O)N1 (stereo not drawn) [Example E38, 4-(4-fluoro-3-(3-oxo-3-(phenethylamino)propyl)phenyl)-N-(1H-indazol-5-yl)-6-methyl-2-oxo-1,2,3,4-tetrahydropyrimidine-5-carboxamide]	7000
COc1ccccc1C(C)NC(=O)c1cc(C2NC(=O)NC(C)=C2C(=O)Nc2ccc3[nH]ncc3c2)ccc1F (stereo not drawn) [Example E27, 4-(4-fluoro-3-((1-(2-methoxyphenyl)ethyl)carbamoyl)phenyl)-N-(1H-indazol-5-yl)-6-methyl-2-oxo-1,2,3,4-tetrahydropyrimidine-5-carboxamide]	320
CC1=C(C(=O)Nc2ccc3[nH]ncc3c2)C(c2ccc(F)c(C(=O)NC3CC4CCC3(C)C4(C)C)c2)NC(=O)N1 (stereo not drawn) [Example E25, 4-(4-fluoro-3-((1,7,7-trimethylbicyclo[2.2.1]heptan-2-yl)carbamoyl)phenyl)-N-(1H-indazol-5-yl)-6-methyl-2-oxo-1,2,3,4-tetrahydropyrimidine-5-carboxamide]	5200

Second part, the molecule after the results:

IC50 [nM]	SMILES
14600	CC1=C(C(=O)Nc2ccc3[nH]ncc3c2)C(c2ccc(F)c(C(=O)N(C)CC3CCCCO3)c2)NC(=O)N1 (stereo not drawn) [Example E21, 4-(4-fluoro-3-(methyl((tetrahydro-2H-pyran-2-yl)methyl)carbamoyl)phenyl)-N-(1H-indazol-5-yl)-6-methyl-2-oxo-1,2,3,4-tetrahydropyrimidine-5-carboxamide]
1500	CC1=C(C(=O)Nc2ccc3[nH]ncc3c2)C(c2ccc(F)c(CC(=O)N3CCOC(CCO)C3)c2)NC(=O)N1 (stereo not drawn) [Example E31, 4-(4-fluoro-3-(2-(2-(2-hydroxyethyl)morpholino)-2-oxoethyl)phenyl)-N-(1H-indazol-5-yl)-6-methyl-2-oxo-1,2,3,4-tetrahydropyrimidine-5-carboxamide]
820	COC(=O)C1(NC(=O)c2cc(C3NC(=O)NC(C)=C3C(=O)Nc3ccc4[nH]ncc4c3)ccc2F)CCCCC1 (stereo not drawn) [Example E23, methyl 1-(5-(5-((1H-indazol-5-yl)carbamoyl)-6-methyl-2-oxo-1,2,3,4-tetrahydropyrimidin-4-yl)-2-fluorobenzamido)cyclohexanecarboxylate]
740	CC1=C(C(=O)Nc2ccc3[nH]ncc3c2)C(c2ccc(F)c(C(=O)NCC(C)N3CCCCCC3)c2)NC(=O)N1 (stereo not drawn) [Example E20, 4-(3-((2-(azepan-1-yl)propyl)carbamoyl)-4-fluorophenyl)-N-(1H-indazol-5-yl)-6-methyl-2-oxo-1,2,3,4-tetrahydropyrimidine-5-carboxamide]
2600	C#CCN(CC(C)C)C(=O)Cc1cc(C2NC(=O)NC(C)=C2C(=O)Nc2ccc3[nH]ncc3c2)ccc1F (stereo not drawn) [Example E36, 4-(4-fluoro-3-(2-(isobutyl(prop-2-yn-1-yl)amino)-2-oxoethyl)phenyl)-N-(1H-indazol-5-yl)-6-methyl-2-oxo-1,2,3,4-tetrahydropyrimidine-5-carboxamide]

What follows are molecules tested against ROCK1 (Homo sapiens (Human), UniProt Q13464) (assay: Rho-associated coiled-coil kinase (ROCK) assay, ADP-Glo system). Conditions: 0.1 μg ROCK1, 1 μg S6K substrate, 100 μM ATP, 60 min.
Sequence of ROCK1 (Q13464 whole entry, species assumed): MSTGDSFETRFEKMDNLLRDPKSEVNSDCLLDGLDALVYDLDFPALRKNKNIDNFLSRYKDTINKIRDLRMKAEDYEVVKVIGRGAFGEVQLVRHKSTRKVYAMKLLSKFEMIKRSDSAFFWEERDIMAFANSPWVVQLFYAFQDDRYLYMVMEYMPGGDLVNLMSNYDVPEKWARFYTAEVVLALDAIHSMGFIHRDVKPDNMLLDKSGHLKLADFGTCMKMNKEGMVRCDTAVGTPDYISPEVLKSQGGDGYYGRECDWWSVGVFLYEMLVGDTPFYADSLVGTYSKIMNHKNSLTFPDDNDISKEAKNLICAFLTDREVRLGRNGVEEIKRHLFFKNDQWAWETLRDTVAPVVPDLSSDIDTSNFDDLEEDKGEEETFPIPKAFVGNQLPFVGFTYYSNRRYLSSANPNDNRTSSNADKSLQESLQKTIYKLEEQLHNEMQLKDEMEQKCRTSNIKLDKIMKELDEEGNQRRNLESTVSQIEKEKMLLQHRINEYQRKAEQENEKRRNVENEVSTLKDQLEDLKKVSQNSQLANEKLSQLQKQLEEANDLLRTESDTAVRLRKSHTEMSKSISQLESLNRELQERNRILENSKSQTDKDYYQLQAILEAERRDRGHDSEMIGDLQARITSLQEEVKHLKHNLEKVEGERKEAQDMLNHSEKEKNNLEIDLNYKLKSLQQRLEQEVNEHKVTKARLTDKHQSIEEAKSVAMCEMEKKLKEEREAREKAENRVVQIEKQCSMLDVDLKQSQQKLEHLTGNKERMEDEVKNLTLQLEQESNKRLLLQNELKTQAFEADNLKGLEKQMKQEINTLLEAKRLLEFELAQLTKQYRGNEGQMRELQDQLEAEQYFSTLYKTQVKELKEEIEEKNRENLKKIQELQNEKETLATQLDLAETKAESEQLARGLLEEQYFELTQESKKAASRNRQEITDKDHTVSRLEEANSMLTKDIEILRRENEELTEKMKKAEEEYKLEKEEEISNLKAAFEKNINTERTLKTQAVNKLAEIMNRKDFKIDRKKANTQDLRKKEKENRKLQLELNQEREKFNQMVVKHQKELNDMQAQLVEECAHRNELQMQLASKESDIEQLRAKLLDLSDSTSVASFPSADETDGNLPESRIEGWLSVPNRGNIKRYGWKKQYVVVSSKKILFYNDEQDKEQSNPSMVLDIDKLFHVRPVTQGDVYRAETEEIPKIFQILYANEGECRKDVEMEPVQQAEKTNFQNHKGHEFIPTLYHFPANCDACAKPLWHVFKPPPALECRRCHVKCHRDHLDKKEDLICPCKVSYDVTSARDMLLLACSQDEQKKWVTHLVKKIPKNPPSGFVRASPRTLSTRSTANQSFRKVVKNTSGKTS
Assay type: biochemical
Protocol: Rho-associated coiled-coil kinase (ROCK) assays were performed with the ADP-Glo system using 0.1 μg ROCK1 and 1 μg S6K substrate, and 100 μM ATP for 60 min prior to addition of ADP-GLO Reagent, and allowed to incubate for an additional 40 min prior to the addition of the Kinase Detection Reagent and imaging on a PHERASTAR system.

SMILES	IC50 [nM]
CC1=C(C(=O)Nc2ccc3[nH]ncc3c2)C(c2ccc(F)c(C(=O)NCc3cccc(F)c3)c2)NC(=O)N1 (stereo not drawn) [Example E04, 4-(4-fluoro-3-((3-fluorobenzyl)carbamoyl)phenyl)-N-(1H-indazol-5-yl)-6-methyl-2-oxo-1,2,3,4-tetrahydropyrimidine-5-carboxamide]	21
CC1=C(C(=O)Nc2ccc3[nH]ncc3c2)C(c2ccc(F)c(CC(=O)NCc3c(C)cccc3C)c2)NC(=O)N1 (stereo not drawn) [Example E28, 4-(3-(2-((2,6-dimethylbenzyl)amino)-2-oxoethyl)-4-fluorophenyl)-N-(1H-indazol-5-yl)-6-methyl-2-oxo-1,2,3,4-tetrahydropyrimidine-5-carboxamide]	450
CC1=C(C(=O)Nc2ccc3[nH]ncc3c2)C(c2ccc(F)c(CC(=O)NCc3c(C(F)(F)F)cccc3C(F)(F)F)c2)NC(=O)N1 (stereo not drawn) [Example E29, 4-(3-(2-((2,6-bis(trifluoromethyl)benzyl)amino)-2-oxoethyl)-4-fluorophenyl)-N-(1H-indazol-5-yl)-6-methyl-2-oxo-1,2,3,4-tetrahydropyrimidine-5-carboxamide]	400
COc1cccc(OC)c1CNC(=O)Cc1cc(C2NC(=O)NC(C)=C2C(=O)Nc2ccc3[nH]ncc3c2)ccc1F (stereo not drawn) [Example E30, 4-(3-(2-((2,6-dimethoxybenzyl)amino)-2-oxoethyl)-4-fluorophenyl)-N-(1H-indazol-5-yl)-6-methyl-2-oxo-1,2,3,4-tetrahydropyrimidine-5-carboxamide]	200
CC1=C(C(=O)Nc2ccc3[nH]ncc3c2)C(c2ccc(F)c(C(=O)NCc3ccccc3)c2)NC(=O)N1 (stereo not drawn) [Example E16, 4-(3-(benzylcarbamoyl)-4-fluorophenyl)-N-(1H-indazol-5-yl)-6-methyl-2-oxo-1,2,3,4-tetrahydropyrimidine-5-carboxamide]	69
CNC(=O)c1cc(C2NC(=O)NC(C)=C2C(=O)Nc2ccc3[nH]ncc3c2)ccc1F (stereo not drawn) [Example E12, 4-(4-fluoro-3-(methylcarbamoyl)phenyl)-N-(1H-indazol-5-yl)-6-methyl-2-oxo-1,2,3,4-tetrahydropyrimidine-5-carboxamide]	190
CC1=C(C(=O)Nc2ccc3[nH]ncc3c2)C(c2ccc(F)c(C(=O)NCc3cc(C(F)(F)F)cc(C(F)(F)F)c3)c2)NC(=O)N1 (stereo not drawn) [Example E13, 4-(3-((3,5-bis(trifluoromethyl)benzyl)carbamoyl)-4-fluorophenyl)-N-(1H-indazol-5-yl)-6-methyl-2-oxo-1,2,3,4-tetrahydropyrimidine-5-carboxamide]	1900
CC1=C(C(=O)Nc2ccc3[nH]ncc3c2)C(c2ccc(F)c(C(=O)NCc3c(Cl)cccc3Cl)c2)NC(=O)N1 (stereo not drawn) [Example E09, 4-(3-((2,6-dichlorobenzyl)carbamoyl)-4-fluorophenyl)-N-(1H-indazol-5-yl)-6-methyl-2-oxo-1,2,3,4-tetrahydropyrimidine-5-carboxamide]	6700
CC1=C(C(=O)Nc2ccc3[nH]ncc3c2)C(c2ccc(F)c(C(=O)NCc3ccccn3)c2)NC(=O)N1 (stereo not drawn) [Example E01, 4-(4-fluoro-3-((pyridin-2-ylmethyl)carbamoyl)phenyl)-N-(1H-indazol-5-yl)-6-methyl-2-oxo-1,2,3,4-tetrahydropyrimidine-5-carboxamide]	11
CC1=C(C(=O)Nc2ccc3[nH]ncc3c2)C(c2ccc(F)c(C(=O)NCc3c(C)cccc3C)c2)NC(=O)N1 (stereo not drawn) [Example E10, 4-(3-((2,6-dimethylbenzyl)carbamoyl)-4-fluorophenyl)-N-(1H-indazol-5-yl)-6-methyl-2-oxo-1,2,3,4-tetrahydropyrimidine-5 carboxamide]	5800

Results, then the molecule that gave them:

IC50 [nM]	SMILES
97	COc1cccc(CNC(=O)c2cc(C3NC(=O)NC(C)=C3C(=O)Nc3ccc4[nH]ncc4c3)ccc2F)c1 (stereo not drawn) [Example E18, 4-(4-fluoro-3-((3-methoxybenzyl)carbamoyl)phenyl)-N-(1H-indazol-5-yl)-6-methyl-2-oxo-1,2,3,4-tetrahydropyrimidine-5-carboxamide]
23	CC1=C(C(=O)Nc2ccc3[nH]ncc3c2)C(c2ccc(F)c(C(=O)NCCc3ccccn3)c2)NC(=O)N1 (stereo not drawn) [Example E03, 4-(4-fluoro-3-((2-(pyridin-2-yl)ethyl)carbamoyl)phenyl)-N-(1H-indazol-5-yl)-6-methyl-2-oxo-1,2,3,4-tetrahydropyrimidine-5-carboxamide]
> 10000	CC1=C(C(=O)Nc2ccc3[nH]ncc3c2)C(c2ccc(F)c(C(=O)NCc3c(C(F)(F)F)cccc3C(F)(F)F)c2)NC(=O)N1 (stereo not drawn) [Example E17, 4-(3-((2,6-bis(trifluoromethyl)benzyl)carbamoyl)-4-fluorophenyl)-N-(1H-indazol-5-yl)-6-methyl-2-oxo-1,2,3,4-tetrahydropyrimidine-5-carboxamide]
> 10000	COc1cccc(OC)c1CNC(=O)c1cc(C2NC(=O)NC(C)=C2C(=O)Nc2ccc3[nH]ncc3c2)ccc1F (stereo not drawn) [Example E11, 4-(3-((2,6-dimethoxybenzyl)carbamoyl)-4-fluorophenyl)-N-(1H-indazol-5-yl)-6-methyl-2-oxo-1,2,3,4-tetrahydropyrimidine-5-carboxamide]
150	CC1=C(C(=O)Nc2ccc3[nH]ncc3c2)C(c2ccc(F)c(C(=O)NCc3ncccc3C)c2)NC(=O)N1 (stereo not drawn) [Example E15, 4-(4-fluoro-3-(((3-methylpyridin-2-yl)methyl)carbamoyl)phenyl)-N-(1H-indazol-5-yl)-6-methyl-2-oxo-1,2,3,4-tetrahydropyrimidine-5-carboxamide]
50	COc1ccc(CNC(=O)c2cc(C3NC(=O)NC(C)=C3C(=O)Nc3ccc4[nH]ncc4c3)ccc2F)cc1 (stereo not drawn) [Example E06, 4-(4-fluoro-3-((4-methoxybenzyl)carbamoyl)phenyl)-N-(1H-indazol-5-yl)-6-methyl-2-oxo-1,2,3,4-tetrahydropyrimidine-5-carboxamide]
290	CC1=C(C(=O)Nc2ccc3[nH]ncc3c2)C(c2ccc(F)c(C(=O)NCCc3c(C)cccc3C)c2)NC(=O)N1 (stereo not drawn) [Example E14, 4-(3-((2,6-dimethylphenethyl)carbamoyl)-4-fluorophenyl)-N-(1H-indazol-5-yl)-6-methyl-2-oxo-1,2,3,4-tetrahydropyrimidine-5-carboxamide]
78	CC1=C(C(=O)Nc2ccc3[nH]ncc3c2)C(c2ccc(F)cc2)NC(=O)N1 (stereo not drawn) [GSK180736A, reference compound]
> 100000	CC1=C(C(=O)Nc2ccc3[nH]ncc3c2)C(c2ccc(F)c(C(=O)NCCc3ccncc3)c2)NC(=O)N1 (stereo not drawn) [Example E07, 4-(4-fluoro-3-((2-(pyridin-4-yl)ethyl)carbamoyl)phenyl)-N-(1H-indazol-5-yl)-6-methyl-2-oxo-1,2,3,4-tetrahydropyrimidine-5-carboxamide]
